The target of series [1] is T1r2a–T1r3LBD heterodimer (Oryzias latipes, UniProt A0A173M094+A0A173M0G2). Put plainly: FRET signal change of T1r2aLBD-Cerulean and T1r3LBD-Venus heterodimer on amino acid binding. The following applies: for FRET signal elevation of fluorescence-labelled LBDs: qualitative.
Protocol: The conformational change of T1r2a–T1r3LBD on ligand binding was analysed by Förster resonance energy transfer (FRET) measurement. The heterodimer of the T1r2aLBD (M1-S474)—Celurean fusion protein (T1r2aL-Ce) and the T1r3LBD (M1-S491)—Venus fusion protein (T1r3L-Ve) was stably expressed by S2 cells (Invitrogen) and purified by ANTI-FLAG M2 affinity gel (SIGMA) by use of the FLAG-tag at their C termini, as previously described[22]. […] The titration curves were fitted to the Hill equation by using KaleidaGraph (Synergy Software).
Therefore, at least two independent measurements were performed in this study, except for the inset in Fig. 2a with a single analysis.
In series [2] the target is full-length T1r2a–T1r3 receptor (Oryzias latipes, UniProt A0A173M094+A0A173M0G2). As to the kind of experiment: Ca2+ flux assay of full-length receptor in HEK293 (Flip-In 293) cells. Format: cell-based, medaka fish (Oryzias latipes). The following applies: for Response of the full-length receptor according to Ca2+-imaging: qualitative, tested up to 10 mM. The method, then:
(§1) The Ca^2+ flux assays were performed using a FLEX station 3 (Molecular Devices, LLC) for the cells loaded with 100 μl of Hank's balanced salt solution (Sigma-Aldrich), containing 5 μM of the calcium indicator dye Fluo8 NW (AAT Bioquest). The stimulation was performed by adding 25 μl of 5 × concentrated solutions of taste substances, using a pipette. The intensity of the response was represented as ΔRFU (delta relative fluorescence unit) defined as maximum fluorescence value for the taste substances minus that for the Hank's Balanced Salt Solution, and was plotted versus the ligand concentration. The concentration-response curves were fitted to the Hill equation, using SigmaPlot software (Systat Software).

For series [3], the target named is T1, T1r2a–T1r3:S300E mutant (Oryzias latipes, UniProt A0A173M0G2).
T1 sequence (A0A173M0G2 12-802): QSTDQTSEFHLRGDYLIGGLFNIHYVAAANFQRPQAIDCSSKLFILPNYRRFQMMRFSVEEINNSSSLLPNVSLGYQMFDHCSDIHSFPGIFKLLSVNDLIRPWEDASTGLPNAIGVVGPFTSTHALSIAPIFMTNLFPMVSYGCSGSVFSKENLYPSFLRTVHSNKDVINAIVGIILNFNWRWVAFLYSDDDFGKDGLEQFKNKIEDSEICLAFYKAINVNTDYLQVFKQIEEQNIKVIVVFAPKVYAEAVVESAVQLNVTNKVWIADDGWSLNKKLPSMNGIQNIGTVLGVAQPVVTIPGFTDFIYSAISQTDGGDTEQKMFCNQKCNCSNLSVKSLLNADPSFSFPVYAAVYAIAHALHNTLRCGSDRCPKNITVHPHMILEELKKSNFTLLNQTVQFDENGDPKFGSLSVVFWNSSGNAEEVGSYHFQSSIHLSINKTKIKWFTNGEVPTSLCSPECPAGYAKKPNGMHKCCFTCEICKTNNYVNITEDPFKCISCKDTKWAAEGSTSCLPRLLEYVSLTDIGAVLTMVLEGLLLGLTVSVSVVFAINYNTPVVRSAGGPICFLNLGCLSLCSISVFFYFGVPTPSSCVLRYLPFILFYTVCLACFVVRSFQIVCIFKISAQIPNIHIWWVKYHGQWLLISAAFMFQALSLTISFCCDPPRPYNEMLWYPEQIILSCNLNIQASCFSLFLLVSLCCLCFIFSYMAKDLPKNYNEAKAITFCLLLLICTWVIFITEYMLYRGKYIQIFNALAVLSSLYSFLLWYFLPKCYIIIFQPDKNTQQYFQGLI
T1 sequence (A0A173M094 12-836 partner): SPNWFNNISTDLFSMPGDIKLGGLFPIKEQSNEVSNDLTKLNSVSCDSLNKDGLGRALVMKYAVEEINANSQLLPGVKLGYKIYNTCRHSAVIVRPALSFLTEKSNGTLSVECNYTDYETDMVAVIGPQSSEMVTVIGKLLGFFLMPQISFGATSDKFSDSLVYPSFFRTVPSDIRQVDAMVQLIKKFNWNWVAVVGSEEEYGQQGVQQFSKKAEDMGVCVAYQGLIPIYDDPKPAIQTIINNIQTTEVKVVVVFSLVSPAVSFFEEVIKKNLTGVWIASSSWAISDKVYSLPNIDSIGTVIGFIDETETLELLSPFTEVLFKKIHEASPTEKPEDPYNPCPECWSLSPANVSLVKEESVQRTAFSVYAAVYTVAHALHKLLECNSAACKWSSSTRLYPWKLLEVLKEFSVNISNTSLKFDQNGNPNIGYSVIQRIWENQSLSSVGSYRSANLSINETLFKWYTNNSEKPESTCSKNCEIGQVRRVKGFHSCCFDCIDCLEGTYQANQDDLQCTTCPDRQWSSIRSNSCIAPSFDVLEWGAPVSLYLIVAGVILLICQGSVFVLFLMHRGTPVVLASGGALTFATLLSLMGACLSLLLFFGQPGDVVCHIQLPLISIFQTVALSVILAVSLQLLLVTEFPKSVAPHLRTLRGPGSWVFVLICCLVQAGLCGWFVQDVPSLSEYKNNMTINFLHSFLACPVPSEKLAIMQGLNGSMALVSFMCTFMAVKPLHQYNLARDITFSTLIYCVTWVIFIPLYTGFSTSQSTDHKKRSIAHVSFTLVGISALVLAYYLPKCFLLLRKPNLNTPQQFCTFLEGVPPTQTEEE
Put plainly: cell-based. Also on record: species or system medaka fish (Oryzias latipes). The method, then: as §1
Mutations were introduced using QuikChange (Agilent Technologies) or PrimeStarMax (TAKARA BIO, only for T1r2a:S165I) with primers summarized in Supplementary Table 3.

The conditions of series [4]: cited from earlier work; for Hydropathy index: ref Handbook of Chemistry and Physics, CRC Press; for pI: ref Kyte & Doolittle, J. Mol. Biol., 157, 105-132, 1982; for Volume: ref Tsai et al. J. Mol. Biol., 290, 253-266,1999.
Series [5] deals with human T1r1–T1r3. More on the design: method as in PMID 24214976. The following applies: cited from earlier work.
Series [6] has as its target T2, T1r2a-T1r3LBD heterodimer, medaka fish (Oryzias latipes (medaka fish), UniProt A0A173M0G2;A0A173M094, glycosyl chains trimmed to single N-acetylglucosamine residues by Endo H | glycosyl chains trimmed to single N-acetylglucosamine residues by Endo H).
T2 construct: signal peptide in the construct; The two chains are joined by an intermolecular disulfide bridge, Cys344 (T1r2a) to Cys132 (T1r3); also called T1r2a-3LBD; T1r2aLBD-T1r3LBD heterodimer; source: S2 cells, stably co-expressed (5 uM kifunensine), from culture medium, purified (ANTI-FLAG M2, factor Xa, Endo H, SEC); not shown: FLAG, C-terminal, cleaved; copies: 1 + 1
As to the kind of experiment: crystal structure; T1r2a-3LBD heterodimer co-crystallised with Fab16A, with bound L-Gln, L-Ala, L-Arg, L-Glu or Gly; sitting-drop vapor diffusion with microseeding, PEG 1500, PEG400, 0.1 M MES pH 6.0, 293 K. The following applies: both partners purified.

Where [7] appears, read: fitted parameter ± s.e. of Hill equation, Fig. 2b, intracellular Ca2+ elevation, HEK293, read-out: EC50 Receptor responses, T1r2a wt T1r3 wt.
The mark [8] stands for this setting: fitted parameter ± s.e. of Hill equation, intracellular Ca2+ elevation, HEK293, read-out: EC50 Receptor responses, T1r2a wt T1r3 S300E.

Where two headings read alike, the source gives them in different places.

In the case of `NC(=O)CCC(N)C(=O)O` (stereo in doubt) [D-glutamine], the “FRET signal elevation of fluorescence-labelled LBDs, L- versus D-glutamine comparison” value in series [1] (Fig. 2a inset, 283 K, single analysis) is “but not D-glutamine, induced FRET signal elevation”.

With `NCC(=O)O` [Glycine], the “Response of the full-length receptor according to Ca2+-imaging” value (shortened to “Response”) in series [2] (Fig. 2b) is “poor or no significant receptor responses”. Besides, in series [1] (Fig. 2a), the “FRET signal elevation of fluorescence-labelled LBDs” value is “induced FRET signal elevation”. Further, the EC50 in series [1] (read-out: EC50 FRET changes of LBD, T1r2aLBD wt T1r3LBD wt, fitted parameter ± s.e. of Hill equation, Fig. 2a, room temperature) was 6180 ± 3320 µM.

For `C[C@H](N)C(=O)O` [L-Alanine], in series [2] (Fig. 2b), the “Response” value was “induced responses”. The EC50 in series [2] (setting [7]) turned out to be 2460 ± 2670 µM. In series [3] (setting [8]), the EC50 was 1800 ± 300 µM. In series [4], the Hydropathy index is listed as 1.8, the pI is recorded as 6.00 and the Volume is recorded as 90.0 Å3. The midpoint of the response in series [1], the EC50, lay at 141 ± 37 µM. Also, in series [1] (Fig. 2a), the “FRET signal elevation of fluorescence-labelled LBDs” value was “induced FRET signal elevation”.

`N=C(N)NCCC[C@H](N)C(=O)O` [L-Arginine]: the EC50 in series [2] turned out to be 470 ± 297 µM; in series [3] it was 1300 ± 100 µM; in series [1], 190 ± 35 µM. Further, the “Response” value in series [2] (Fig. 2b) is given as “induced responses”. Further, the Hydropathy index in series [4] was -4.5. Besides, the pI in series [4] was 10.76. The Volume in series [4] is reported as 194.0 Å3. The “FRET signal elevation of fluorescence-labelled LBDs” value in series [1] (Fig. 2a) was “induced FRET signal elevation”.

Regarding `N[C@@H](CCC(=O)O)C(=O)O` [L-Glutamate], the “Response” value in series [2] (Fig. 2b) was “poor or no significant receptor responses”. Also, in series [5], the EC50 was ~2700 µM. Also, in series [4], the Hydropathy index is -3.5, the pI was 3.22 and the Volume is 142.2 Å3. A half-maximal response in series [1] (EC50) required 1070 ± 382 µM. In series [1] (Fig. 2a), the “FRET signal elevation of fluorescence-labelled LBDs” value is on record as “induced FRET signal elevation”. In series [1] (compared with glutamine, Fig. 2a), the “Maximum FRET change at saturating concentrations” value was “larger changes”.

Consider `NC(=O)CC[C@H](N)C(=O)O` [L-Glutamine], for which the “Response” value in series [2] (Fig. 2b) was “induced responses”. In addition, the EC50 was 70 ± 8 µM in series [2] (setting [7]), 200 ± 19 µM in series [3] (setting [8]) and 11.5 ± 3.4 µM in series [1]. In series [1] (Fig. 2a), the “FRET signal elevation of fluorescence-labelled LBDs” value is given as “induced FRET signal elevation”.

B1: Fab16A, Fab fragment of the anti-T1r2a-3LBD monoclonal antibody clone 16A (Fab, V domains shown)
VH: EVQLQQSGPELVKPGASMKISCKASGYSFTGYSMNWVKQSHGKNLEWIGLINPYNGDTTYKQKFKGKATLTVDRSSSTAYMELLRLTSEDSAVYYCARSGRGAPTTTTAWFTYWGQGTLVTVSA
VL: DIVLTQSPASLAVSLGQRATISCRASESVDSYGNSFMHWYQQKPGQPPILLISRASNLESGIPARFSGSGSRTDFTLTINPVEADDFATYYCQQTNEDPRTFGGGTKLEIK
notes: Parent antibody is mouse IgG1:kappa; Fab made by papain digestion; also called anti-T1r2a-3LBD mAb clone 16A; source: mouse hybridoma (Mikuri Immunological Lab. Co.); IgG digested with Immobilized-Papain, purified (Protein A Sepharose, Mono S)
For the molecule B1, in series [6], the binding result is recorded as “binds”.

The record behind these values is article PMC5457512, “Structural basis for perception of diverse chemical substances by T1r taste receptors” (Nature Communications, 2017).
